{"source": "ChEMBL document CHEMBL1121589", "about": "“Synthesis and biological activities of 5-(hydroxymethyl, azidomethyl, or aminomethyl)-2'-deoxyuridine and related 5'-substituted analogues” (J Med Chem, 1980)", "assay_type_in_all_cases": "functional", "key": {"[1]": {"system": "Human alphaherpesvirus 1", "test": "Kinetic inhibition constant against herpes simplex virus type I pyrimidine deoxyribonucleoside kinase was measured"}, "[2]": {"system": "Human alphaherpesvirus 1", "test": "Antiviral activity against herpes simplex virus type I was measured at 200 uM concentration."}, "[3]": {"system": "Human alphaherpesvirus 1", "test": "Antiviral activity against herpes simplex virus type I was measured at 400 uM concentration."}, "[4]": {"system": "L1210", "test": "Compound tested for inhibition of the replication of L1210 cells in cell culture at 7 uM", "details": "Mus musculus"}, "[5]": {"system": "L1210", "test": "Compound tested for inhibition of the replication of L1210 cells in cell culture", "details": "Mus musculus, read-out: ED50 (the source's name)"}, "[6]": {"test": "Inhibitory activity against growth of sarcoma 180 cells at 1 uM", "details": "Mus musculus, read-out: ED50 (the source's name)"}, "[7]": {"system": "L1210", "test": "Compound tested for inhibition of the replication of L1210 cells in cell culture at 200 uM", "details": "Mus musculus"}, "[8]": {"system": "Human alphaherpesvirus 1", "test": "Antiviral activity against herpes simplex virus type I was measured at 5 uM concentration."}}}
{"molecule": "[N-]=[N+]=NC[C@H]1O[C@@H](n2cc(CO)c(=O)[nH]c2=O)C[C@@H]1O", "values": [{"measurement": "Ki", "setting": "[1]", "value": 31, "unit": "µM"}, {"measurement": "Control", "setting": "[2]", "value": 100, "unit": "%"}]}
{"molecule": "NCc1cn([C@H]2C[C@H](O)[C@@H](CN)O2)c(=O)[nH]c1=O", "values": [{"measurement": "Ki", "setting": "[1]", "value": "> 500", "unit": "µM"}, {"measurement": "Control", "setting": "[3]", "value": 100, "unit": "%"}]}
{"molecule": "NCc1cn([C@H]2C[C@H](O)[C@@H](CO)O2)c(=O)[nH]c1=O", "values": [{"measurement": "inhibition at 7 µM", "setting": "[4]", "value": 93, "unit": "%"}, {"measurement": "EC50", "setting": "[5]", "value": 2, "unit": "µM"}, {"measurement": "Ki", "setting": "[1]", "value": 36, "unit": "µM"}, {"measurement": "Control", "setting": "[3]", "value": 100, "unit": "%"}, {"measurement": "EC50", "setting": "[6]", "value": 0.16, "unit": "µM"}]}
{"molecule": "[N-]=[N+]=NCc1cn([C@H]2C[C@H](O)[C@@H](CN=[N+]=[N-])O2)c(=O)[nH]c1=O", "values": [{"measurement": "Ki", "setting": "[1]", "value": 62, "unit": "µM"}, {"measurement": "Control", "setting": "[3]", "value": 100, "unit": "%"}]}
{"molecule": "NC[C@H]1O[C@@H](n2cc(CO)c(=O)[nH]c2=O)C[C@@H]1O", "values": [{"measurement": "Ki", "setting": "[1]", "value": 530, "unit": "µM"}, {"measurement": "Control", "setting": "[3]", "value": 100, "unit": "%"}]}
{"molecule": "[N-]=[N+]=NCc1cn([C@H]2C[C@H](O)[C@@H](CO)O2)c(=O)[nH]c1=O", "values": [{"measurement": "EC50", "setting": "[5]", "value": 90, "unit": "µM"}, {"measurement": "Ki", "setting": "[1]", "value": 0.8, "unit": "µM"}, {"measurement": "Control", "setting": "[2]", "value": 0.5, "unit": "%"}, {"measurement": "inhibition at 200 µM", "setting": "[7]", "value": 96, "unit": "%"}]}
{"molecule": "O=c1[nH]c(=O)n([C@H]2C[C@H](O)[C@@H](CO)O2)cc1CO", "values": [{"measurement": "Ki", "setting": "[1]", "value": 3.5, "unit": "µM"}, {"measurement": "Control", "setting": "[2]", "value": 0.05, "unit": "%"}]}
{"molecule": "O=c1[nH]c(=O)n([C@H]2C[C@H](O)[C@@H](CO)O2)cc1I", "note": "[IDOXURIDINE]", "values": [{"measurement": "Control", "setting": "[8]", "value": 2, "unit": "%"}, {"measurement": "Ki", "setting": "[1]", "value": 0.4, "unit": "µM"}]}
